Each structure is given as a SMILES string. Calls of active or inactive are those of the source. The rule behind the calls is not given here.

The test system of one test is Ciona savignyi. The test can be described thus: Promotion of metamorphosis in ascidian Ciona savignyi larvae at 2.5 ug/ml after 10 hrs. It counts as functional, organism-based.
Test [1] concerns Microbacterium maritypicum. The test is described as follows: Antimicrobial activity against Flavobacterium marinotypicum ATCC 19260 at 10 ug/disk after 24 hrs by paper disk method. The format is functional. The note with it: ATCC 19260, 24 h, read-out: IZ.

With `NC(=O)c1cc(Br)c(Br)[nH]1`, the outcome with Ciona savignyi was Active.

With `NC1=NC(=O)C(/C=C/CNC(=O)c2cc(Br)c(Br)[nH]2)(c2nc(N)[nH]c2/C=C/CNC(=O)c2cc(Br)c(Br)[nH]2)N1` (stereo not drawn) [MAURITIAMINE], in test [1], the zone of inhibition at 10 µg/disc came to 10 mm.

`Nc1ncc(/C=C/CNC(=O)c2cc(Br)c(Br)[nH]2)[nH]1` [OROIDIN]: the zone of inhibition at 10 µg/disc in test [1] was 15 mm.

The values above are taken from ChEMBL document CHEMBL1158207, “Mauritiamine, a New Antifouling Oroidin Dimer from the Marine Sponge Agelas mauritiana” (1996).
